Measured values as given in patent US9428465B2, “Acid ceramidase inhibitors and their use as medicaments” (FONDAZIONE ISTITUTO ITALIANO DI TECHNOLOGIA, priority 2012, dated 2016).

What was measured:
[1] = system: SW403 cells; experiment: SW403 cell viability, trypan blue assay; assay type: cell-based, human; conditions: prolonged (72 hrs) treatment, concentration-response, FIGS. 2A and 2B
Protocol: Cells were seeded in 12- or 96-well plates in complete medium 24 hrs before treatment and then incubated for 24 hrs (single treatment) or 72 hrs (multiple treatments) with different drug concentrations in media without serum. Cell viability was then evaluated.
The trypan blue exclusion assay is based on the principle that viable cells have intact cell membrane and can therefore exclude the trypan blue dye. Cell viability was measured after 24 hrs incubation with the drug. Cells were harvested, centrifuged at 1200 rpm for 10 min and pellets re-suspended in PBS. To evaluate viability, cells were diluted 1:1 with 0.4% trypan blue dye (Sigma), incubated for 1 min and white (viable) cells were counted with a hemacytometer.

[2] = target: human acid ceramidase (hAC) (Homo sapiens (Human), UniProt Q13510); experiment: Human acid ceramidase (hAC) activity assay, UPLC/MS of lauric acid; assay type: biochemical; conditions: human acid ceramidase, 50 μM N-lauroyl ceramide, pH 4.5
Chain of human acid ceramidase (hAC) (Q13510 143-395): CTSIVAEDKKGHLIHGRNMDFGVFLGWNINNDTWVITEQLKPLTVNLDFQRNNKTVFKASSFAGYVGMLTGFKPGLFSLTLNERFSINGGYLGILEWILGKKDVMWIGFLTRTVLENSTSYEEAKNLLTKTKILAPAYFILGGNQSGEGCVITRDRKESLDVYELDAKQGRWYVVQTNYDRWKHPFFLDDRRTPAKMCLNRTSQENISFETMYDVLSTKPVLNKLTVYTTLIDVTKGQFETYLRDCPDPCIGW
Chain of human acid ceramidase (hAC) (Q13510 22-142): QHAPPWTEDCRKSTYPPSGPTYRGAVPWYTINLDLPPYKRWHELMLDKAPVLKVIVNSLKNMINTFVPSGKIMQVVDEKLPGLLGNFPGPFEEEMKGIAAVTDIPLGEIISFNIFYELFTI
Protocol: Human acid ceramidase (hAC) cDNA was purchased from Open Biosystem (clone ID 3923451) and subcloned in the mammalian expression vector pCDNA3.1, containing the neomycin resistance gene. The cell line HEK293 was transfected with hAC-pCDNA3.1 construct using JetPEI reagent (Polypus Transfection™, Illkirch, FR) following the manufacturer instructions. A stable cell line of hAC-overexpressing HEK293 was generated by selection with G418 (1 mg/ml) and cell clones were derived by limited dilution plating. hAC-expressing clones were analyzed by western blot.
Hek293 cells overexpressing hAC were suspended in 20 mM Tris HCl (pH 7.5) containing 0.32M sucrose, sonicated and centrifuged at 800×g for 15 min at 4° C. The supernatants were centrifuged again at 12,000×g for 30 min at 4° C. The pellets were suspended in phosphate-buffered saline (PBS) and subjected to 2 freeze-thaw cycles at −80° C. The suspensions were centrifuged at 105,000×g for 1 h at 4° C. The supernatants containing hAC were kept at −80° C. until use. Protein concentration was measured using the bicinchoninic acid (BCA) assay (Pierce).
A hAC protein preparation (10 μg) was preincubated with inhibitors (final DMSO concentration 1%) in assay buffer (100 mM sodium phosphate, 0.1% Nonidet P-40, 150 mM NaCl, 3 mM DTT, 100 mM sodium citrate, pH 4.5) for 30 min at 37° C. Reactions were started by the addition of 50 μM N-lauroyl ceramide (Nu-Chek Prep, Elysian, Minn.) and carried on for 30 min at 37° C. Reactions were stopped by addition of a mixture of chloroform/methanol (2:1, vol/vol) containing 1 nmol 11-lauroleic acid (NuChek Prep). The organic phases were collected, dried under nitrogen and analyzed by UPLC/MS (Acquity, Waters) in the negative-ion mode monitoring the reaction product (lauric acid, m/z=199) using 11-lauroleic acid as internal standard.
Lipids were eluted on an Acquity UPLC BEH C18 column (50 mm length, 2.1 mm i.d., 1.7 μm pore size, Waters) column at 0.5 mL-min^−1 for 1.5 min with a gradient of acetonitrile (CH3CN) and water, both containing 0.25% acetic acid and 5 mM ammonium acetate (70% to 100% CH3CN in 0.5 min, 100% CH3CN for 0.5 min, 70% CH3CN for 0.4 min). The column temperature was 40° C. Electrospray ionization (ESI) was in the negative mode, capillary voltage was 1 kV and cone voltage was 50 V. Nitrogen was used as drying gas at a flow rate of 500 L/h and at a temperature of 400° C.
The [M-H]^− ion was monitored in the selected-ion monitoring mode (m/z values: lauric acid 199, 11-lauroleic acid […]). Calibration curves were generated with authentic lauric acid (Nu Check Prep). Inhibition of acid ceramidase activity was calculated as reduction of lauric acid in the samples compared to vehicle controls. IC50 values were calculated by non-linear regression analysis of log [concentration]/inhibition curves using GraphPad Prism 5 (GraphPad Software Inc., CA, USA) applying a standard slope curve fitting.

IC50 [2]: 35 nM
SMILES: CCCCCCNC(=O)n1cc(Br)c(=O)[nH]c1=O [Example 5, 5-bromo-N-hexyl-2,4-dioxo-pyrimidine-1-carboxamide]
SW403 cell viability (trypan blue assay) [1]: reduction of the viability
